US9345678B2, “Prostanoid receptor agonist compounds and methods of use for same” (ALLERGAN, INC., priority 2013, dated 2016)
Like-named read-outs stand apart in the source and are kept apart here.

Tests used:
[1] = tested on: rat endotoxin-induced uveitis (EIU) model; assay: Rat endotoxin-induced uveitis (EIU) model: cell infiltrate and protein leakage in the aqueous humor; format: in vivo; conditions: for Protein concentration in the aqueous humor: FIG. 11B; for Cell infiltrate in the aqueous humor: FIG. 9C
From the text: FIGS. 9A-D show the results of experiments where cicaprost was applied topically to inhibit inflammation in a rat endotoxin-induced uveitis (EIU) model. Here, the rats were challenged with LPS, and the resulting inflammatory reaction was quantified by measuring leukocyte cell infiltration in the aqueous humor and by measuring the amount of protein leakage into the aqueous humor. In the Figures, “LPS” corresponds to the control where no other topical treatment was applied. “Vehicle” corresponds to an eye drop ophthalmic vehicle solution containing no drug, and which otherwise comprises 0.1% polysorbate 80 in an aqueous medium. “Pred-Forte” corresponds to an ophthalmic solution of 1% prednisolone acetate. “Acular” corresponds to an ophthalmic solution of 0.4% ketorolac. The concentrations of cicaprost used in the ophthalmic vehicle solution were 0.001%, 0.01%, and 0.1%.
FIGS. 11A-B show the results of experiments measuring cell infiltrate and protein in the aqueous humor in a rat EIU model challenged with LPS, where the rats were challenged in a similar manner as described previously. Cicaprost, as well as the cicaprost prodrugs described above in Formulas II-V, were separately topically dosed as a 0.1% ophthalmic solution.

[2] = tested on: cytokine secretion in human monocyte derived dendritic cells; assay: Cytokine secretion in LPS-stimulated human monocyte derived dendritic cells; format: cell-based
Description: FIGS. 8A-F illustrate the effect of different IP receptor agonists and antagonists on cytokine secretion in human monocyte derived dendritic cells stimulated with LPS. In these experiments, the cells were exposed to cicaprost, cicaprost in conjunction with DMSO, and cicaprost with an IP receptor antagonist (Formula VI). Cytokines measured for were TNF-α, IL-6, MCP-1, MIP-1β, IL-8, and IL-12p70, corresponding to FIGS. 8A through 8F, respectively. The concentration ranges of cicaprost were 0 nM, 0.1 nM, 1 nM, 10 nM, 100 nM, and 1000 nM. The concentration of Formula VI IP receptor antagonist used was 10 uM throughout. The concentration of the various cytokines tested for were measured in ng/ml. The concentration of the DMSO used in conjunction with cicaprost was at 0.1%.

[3] = tested on: IL-8 secretion in human macrophages; assay: Effect on IL-8 secretion in stimulated human macrophages in vitro; format: cell-based; conditions: Macrophage, LPS stimulation, FIG. 1A
Description: (§1) The human macrophages were simulated either with lipopolysaccharide (LPS), illustrated in FIG. 1A, or with TNF-α, illustrated in FIG. 1B. The labels on the x-axis correspond respectively to tests measuring IL-8 concentration with no stimulus, a control of only stimulant vehicle (i.e., LPS or TNF-α), and stimulant vehicle in conjunction with cicaprost concentrations of 0.1 nM, 1 nM, 10 nM, 100 nM, and 1000 nM. The y-axis tracks the percentage change of concentration of IL-8 versus the control stimulant vehicle, which is set at 100%.

[4] = tested on: MIP-1α secretion in human macrophages; assay: Effect on MIP-1α secretion in stimulated human macrophages in vitro; format: cell-based; conditions: Macrophage
Description: as §1, with “FIGS. 1A-B illustrate the effect of cicaprost on IL-8 secretion on in vitro human macrophages. The human” for “The human”
FIGS. 3A-B illustrate the effect of cicaprost on MIP-1α secretion on in vitro human macrophages. The human macrophages were simulated either with LPS, illustrated in FIG. 3A, or with TNF-α, illustrated in FIG. 3B. The labeling of the graphs is otherwise the same as described above.

[5] = tested on: TNF-α secretion in human macrophages; assay: Effect on TNF-α secretion in LPS-stimulated human macrophages in vitro; format: cell-based; conditions: Macrophage, LPS stimulation, FIG. 6
Description: as §1, with “FIGS. 1A-B illustrate the effect of cicaprost on IL-8 secretion on in vitro human macrophages. The human” for “The human”
FIG. 6 illustrates the effect of cicaprost on TNF-α secretion on in vitro human macrophages. The human macrophages were simulated with LPS. The labeling of the graphs is otherwise the same as described above.

[6] = tested on: VEGF secretion in human macrophages; assay: Effect on VEGF secretion in TNF-α-stimulated human macrophages in vitro; format: cell-based; conditions: Macrophage, TNF-α stimulation, FIG. 7
Description: as §1, with “FIGS. 1A-B illustrate the effect of cicaprost on IL-8 secretion on in vitro human macrophages. The human” for “The human”
FIG. 7 illustrates the effect of cicaprost on VEGF secretion on in vitro human macrophages. The human macrophages were simulated with TNF-α. The labeling of the graphs is otherwise the same as described above.

[7] = tested on: MCP-1 secretion in human macrophages; assay: Effect on MCP-1 secretion in stimulated human macrophages in vitro; format: cell-based; conditions: Macrophage
Description: as §1, with “FIGS. 1A-B illustrate the effect of cicaprost on IL-8 secretion on in vitro human macrophages. The human” for “The human”
FIGS. 2A-B illustrate the effect of cicaprost on MCP-1 secretion on in vitro human macrophages. The human macrophages were simulated either with LPS, illustrated in FIG. 2A, or with TNF-α, illustrated in FIG. 2B. The labeling of the graphs is otherwise the same as described above.

[8] = tested on: MIP-1β secretion in human macrophages; assay: Effect on MIP-1β secretion in stimulated human macrophages in vitro; format: cell-based; conditions: Macrophage
Description: as §1, with “FIGS. 1A-B illustrate the effect of cicaprost on IL-8 secretion on in vitro human macrophages. The human” for “The human”
FIGS. 4A-B illustrate the effect of cicaprost on MIP-1β secretion on in vitro human macrophages. The human macrophages were simulated either with LPS, illustrated in FIG. 4A, or with TNF-α, illustrated in FIG. 4B. The labeling of the graphs is otherwise the same as described above.

[9] = tested on: corneal wound (anterior keratectomy), donated human eyes; assay: Corneal wound closure in an anterior segment model of donated human eyes; conditions: 0.1% cicaprost, two drops at 0 and 9 hours, wound area at 18 hours, vs vehicle-dosed eye, 3 pairs of donor eyes
Description: The effect of cicaprost on corneal wound healing was evaluated in an anterior segment model using 3 pairs of donated human eyes. Wounding (anterior keratectomy, AK) was induced by scoring the cornea in 8 mm diameter, and the epithelium was removed using a gill knife. The anterior segment of the eye was dissected and cultured in complete medium on a rotating platform for several days to maintain tissue differentiation. Two drops (approximately 50 μl per drop) of 0.1% cicaprost were dosed at 0 and 9 hours on one eye (“Cp”), while the other eye (“CN”) was treated with vehicle (0.1% polysorbate 80 in saline). The initial wound and the progression of wound closure was visualized with 0.015% fluorescein, and the wound area recorded at 0 and 18 hours, as shown in FIG. 12.

[10] = tested on: RANTES secretion in human macrophages; assay: Effect on RANTES secretion in stimulated human macrophages in vitro; format: cell-based; conditions: Macrophage
Description: as §1, with “FIGS. 1A-B illustrate the effect of cicaprost on IL-8 secretion on in vitro human macrophages. The human” for “The human”
FIGS. 5A-B illustrate the effect of cicaprost on RANTES secretion on in vitro human macrophages. The human macrophages were simulated either with LPS, illustrated in FIG. 5A, or with TNF-α, illustrated in FIG. 5B. The labeling of the graphs is otherwise the same as described above.

[11] = tested on: rat endotoxin-induced uveitis (EIU) model; assay: Rat EIU model: cytokine concentration in the aqueous humor; format: in vivo; conditions: LPS challenge, topical cicaprost 0.001%, 0.01%, 0.1%, vs vehicle
Description: FIGS. 10A-C depict the results of experiments measuring cytokine expression in a rat EIU model, where the rats were challenged with LPS. Cytokine concentration (here, MCP-1, RANTES, and IL-6) was measured subsequent to the LPS challenge, after topical application of cicaprost at concentrations from 0.001%, 0.01%, and 0.1%, together with a control eye drop vehicle (abbreviated “Vehicle” in the figures) where no cicaprost was present.

[12] = LPS challenge, topical 0.1% ophthalmic solution, vs control vehicle

With `CCC#CC[C@H](C)[C@H](O)C#C[C@@H]1[C@H]2C/C(=C/COCC(=O)O)C[C@H]2C[C@H]1OC(=O)CC` [Formula III] the “Protein concentration in the aqueous humor” value (from here on “Protein concentration”) [1, 12] was “approximately comparable to cicaprost in effect”.
In the case of `CCC#CC[C@H](C)[C@H](O)C#C[C@@H]1[C@H]2C/C(=C/COCC(=O)O)C[C@H]2C[C@H]1OC(C)=O` [Formula II], the “Protein concentration” value [1, 12] is reported as “some reduction in protein concentration”.
For `CCC#CC[C@H](C)[C@@H](C#C[C@@H]1[C@H]2C/C(=C/COCC(=O)O)C[C@H]2C[C@H]1O)OC(C)=O` [Formula IV], the “Protein concentration” value [1, 12] was “some reduction in protein concentration”.
In the case of `C=C/C(=C\C=C\Cc1ccc(NC2=NCCN2)cc1)OCC` [Formula VI, reference compound], the “Cytokine expression on addition of the IP receptor antagonist to cicaprost” value ([2]; Formula VI 10 uM with cicaprost 0-1000 nM) is reported as “caused cytokine expression to remain elevated in comparison”.
In the case of `CCC#CC[C@H](C)[C@@H](C#C[C@@H]1[C@H]2C/C(=C/COCC(=O)O)C[C@H]2C[C@H]1O)OC(=O)CC` [Formula V], the “Protein concentration” value [1, 12] is reported as “some reduction in protein concentration”.
In the case of `CCC#CC[C@H](C)[C@H](O)C#C[C@@H]1[C@H]2C/C(=C/COCC(=O)O)C[C@H]2C[C@H]1O` [cicaprost], the “Cytokine expression (TNF-α, IL-6, MCP-1, MIP-1β, IL-8, IL-12p70)” value ([2]; cicaprost 0.1-1000 nM with 0.1% DMSO) is reported as “increasing inhibition of cytokine expression”, the “Cytokine expression (TNF-α, IL-6, MCP-1, MIP-1β, IL-8, IL-12p70)” value ([2]; cicaprost 0.1-1000 nM, vs 0 nM control) is reported as “increasing inhibition of cytokine expression” and the IC50 [3] is reported as 0.8 nM. For the same compound, the IC50 ([4]; LPS stimulation, FIG. 3A, read-out: IC50 on MIP-1α secretion stimulated by LPS) was 0.3 nM, the IC50 ([4]; TNF-α stimulation, FIG. 3B, read-out: IC50 on MIP-1α secretion) was 0.6 nM and the IC50 [5] was 0.14 nM. The EC50 [6] was 2.3 nM, the “Cell infiltration in the aqueous humor” value ([1]; LPS challenge, topical 0.1% ophthalmic solution, vs control vehicle, FIG. 11A) was “caused a reduction in cell infiltration” and the “Protein concentration” value [1, 12] was “reduced protein concentration in the aqueous humor”. The “Cell infiltrate in the aqueous humor” value ([1]; topical 0.1% cicaprost solution) was “reduced cell infiltrate to near-zero levels”, the “Cell infiltrate in the aqueous humor” value ([1]; topical cicaprost 0.001%, 0.01%, 0.1%) was “increasing effect on lowering cell infiltrate” and the “Protein in the aqueous humor” value ([1]; topical cicaprost 0.001-0.1%, especially 0.1%, FIG. 9D) was “also reduced”. The IC50 ([7]; LPS stimulation, FIG. 2A, read-out: IC50 on MCP-1 secretion stimulated by LPS) was 0.7 nM, the IC50 ([7]; TNF-α stimulation, FIG. 2B, read-out: IC50 on MCP-1 secretion) was 0.5 nM and the IC50 ([8]; LPS stimulation, FIG. 4A, read-out: IC50 on MIP-1β secretion stimulated by LPS) was 0.5 nM. The IC50 ([8]; TNF-α stimulation, FIG. 4B, read-out: IC50 on MIP-1β secretion) was 0.7 nM, the “Percentage of wound closure” value [9] was “showed an improvement in the percentage of wound closure” and the IC50 ([10]; LPS stimulation, FIG. 5A, read-out: IC50 on RANTES secretion stimulated by LPS) was 0.8 nM. For the same compound, the IC50 ([10]; TNF-α stimulation, FIG. 5B, read-out: IC50 on RANTES secretion) was 1.6 nM, the IL-6 concentration [11] was “reduced the concentration of the monitored cytokines” and the MCP-1 concentration [11] was “reduced the concentration of the monitored cytokines”. For the same compound, the RANTES concentration [11] was “reduced the concentration of the monitored cytokines”.
